Literature values, collected in patent US20210361700A1 (priority 2020, published 2021).

System: influenza
Conditions: older mice

**Q.** Which “resistance to and pathogenesis of influenza” value does the source give for Vitamin E here?
**A.** Increases resistance to and
